IC50, melting point and inhibition data for 25 molecules are collected here from patent US8354414B2, “Substituted bicyclic pyrimidines” (Cephalon, Inc, priority 2006, dated 2013).

For one series, the target named is T1, His6-GSK-3β (Homo sapiens, UniProt P49841).
T1 construct: made in house; host or cells: Sf21 insect cells (baculovirus)
The experiment in a line: Inhibition of His6-GSK-3β kinase activity (ELISA-based format, time-resolved fluorescence readout). The series is classed as biochemical. The conditions noted are these: read-out: GSK3β IC50. In outline: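 N-terminal His6-tagged full-length human GSK-3β (aa 2-419) expressed in Sf21 cells, 200 ng/ml, phosphorylating plate-coated GST-Rb with 20 μM ATP in pH 7.2 HEPES buffer, 30 min at 37° C. Phospho-Rb (Ser-780) detected by antibody plus Eu-labelled secondary, time-resolved fluorescence; IC50 from curves.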

A further series addresses T2, CDK5/GST-p25 (Homo sapiens, UniProt Q00535).
T2 construct: The final construct, encoding for full-length human CDK5; made in house; host or cells: Sf21 insect cells (baculovirus co-infection)
The experiment in a line: Inhibition of CDK5/GST-p25 kinase activity (ELISA with time-resolved fluorescence readout). The format is biochemical. In outline:
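Sf21-coexpressed full-length human CDK5 with GST-p25 (p35 aa 108-307), glutathione-purified, at 2 ng/ml was reacted for 20 min at 37 °C on plate-coated GST-Rb(773-928). Buffer was 20 mM HEPES pH 7.2, 10 µM ATP, 10 mM MgCl2 and 2.5% DMSO. Phospho-Rb Ser-780 was detected by Eu-labelled antibody TRF, and IC50 curves were fitted.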

Read-outs that look alike come from different tables or passages of the source. A value given as a limit tells only on which side of the number the result lay.

T2 sequence (Q00535 whole entry): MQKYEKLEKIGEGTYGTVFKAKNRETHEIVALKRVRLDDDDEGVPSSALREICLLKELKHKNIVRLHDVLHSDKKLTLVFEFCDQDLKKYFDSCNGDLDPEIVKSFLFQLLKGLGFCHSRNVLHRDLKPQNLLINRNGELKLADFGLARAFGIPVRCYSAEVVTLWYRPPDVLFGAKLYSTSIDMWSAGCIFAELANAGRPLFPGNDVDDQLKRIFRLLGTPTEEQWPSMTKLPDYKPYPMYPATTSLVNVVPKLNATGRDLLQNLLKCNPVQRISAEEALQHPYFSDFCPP
T2 sequence (Q15078 108-307 partner limits assumed): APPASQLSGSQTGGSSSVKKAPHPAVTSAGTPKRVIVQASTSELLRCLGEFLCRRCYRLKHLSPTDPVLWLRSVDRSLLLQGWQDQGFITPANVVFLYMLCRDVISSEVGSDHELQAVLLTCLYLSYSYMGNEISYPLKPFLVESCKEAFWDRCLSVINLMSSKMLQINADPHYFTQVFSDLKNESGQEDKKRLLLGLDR
T1 sequence (P49841 2-419): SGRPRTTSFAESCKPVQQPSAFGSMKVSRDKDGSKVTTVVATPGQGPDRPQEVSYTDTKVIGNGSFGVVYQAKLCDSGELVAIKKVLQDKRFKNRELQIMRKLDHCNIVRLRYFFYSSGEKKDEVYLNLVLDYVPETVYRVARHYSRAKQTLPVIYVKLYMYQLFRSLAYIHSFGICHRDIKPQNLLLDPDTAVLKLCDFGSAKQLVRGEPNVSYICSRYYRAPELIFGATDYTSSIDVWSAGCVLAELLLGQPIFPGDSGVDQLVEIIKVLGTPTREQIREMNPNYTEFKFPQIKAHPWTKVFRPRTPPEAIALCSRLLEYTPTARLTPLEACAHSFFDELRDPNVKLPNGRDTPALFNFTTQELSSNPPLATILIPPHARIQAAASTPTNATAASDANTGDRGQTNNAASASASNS

Molecule `CC(C)Nc1nc(C2C(=O)Nc3ccc(C#N)cc32)c2cn(C3CCCC3)nc2n1` (stereo not drawn) [Example 150, 3-(2-cyclopentyl-6-isopropylamino-2H-pyrazolo [3,4-d]pyrimidin-4-yl)-2-oxo-2,3-dihydro-1H-indole-5-carbonitrile] yielded a melting point of over 300 °C. Moreover, the IC50 on His6-GSK-3β (class symbols) was under 300 nM. The molecule also registered an inhibition at 10 µM against CDK5/GST-p25 of 76%.

For the molecule `C=CCNc1nc(C2C(=O)Nc3ccc(C#N)cc32)c2cn(CCCCC)nc2n1` (stereo not drawn) [Example 293, 3-(6-Allylamino-2-pentyl-2H-pyrazolo[3,4-d]pyrimidin-4-yl)-2-oxo-2,3-dihydro-1H-indole-5-carbonitrile], the melting point was 265 °C (dec.). In addition, the IC50 at His6-GSK-3β (class symbols) is under 300 nM. This molecule returned an IC50 on CDK5/GST-p25 (class symbols) of under 300 nM.

`O=C1Nc2ccc(Cl)cc2C1c1ncnc2nn(C3CCCC3)cc12` (stereo not drawn) [Example 36, 5-Chloro-3-(2-Cyclopentyl-2H-pyrazolo [3,4-d]pyrimidin-4-yl)-2-oxo-1,3-dihydro-indol-2-one] came in with a melting point of 290 to 292 °C. Also, the IC50 on His6-GSK-3β (class symbols) is under 300 nM. Besides, at CDK5/GST-p25 (class symbols), the IC50 is under 300 nM.

With `CCCCCn1cc2c(C3C(=O)Nc4ccc(C#N)cc43)nc(NC(C)C)nc2n1` (stereo not drawn) [Example 295, 3-(6-Isopropylamino-2-pentyl-2H-pyrazolo[3,4-d]pyrimidin-4-yl)-2-oxo-2,3-dihydro-1H-indole-5-carbonitrile], the melting point was 199 °C (dec.). The IC50 at His6-GSK-3β (class symbols) was under 300 nM. The same molecule came in with an IC50 at CDK5/GST-p25 (class symbols) of under 300 nM.

The molecule `CCCn1cc2c(C3C(=O)Nc4ccc(C#N)cc43)nc(NCCc3ccccn3)nc2n1` (stereo not drawn) [Example 187, 2-Oxo-3-[2-propyl-6-(2-pyridin-2-yl-ethylamino)-2H-pyrazolo[3,4-d]pyrimidin-4-yl]-2,3-dihydro-1H-indole-5-carbonitrile] gave a melting point of over 300 °C. Further, the IC50 on His6-GSK-3β (class symbols) was under 300 nM. Besides, the IC50 against CDK5/GST-p25 (class symbols) is under 300 nM.

As to `N#Cc1cccc2c1NC(=O)C2c1ncnc2c1cnn2C1CCCC1` (stereo not drawn) [Example 64, 3-(1-Cyclopentyl-1H-pyrazolo [3,4-d]pyrimidin-4-yl)-2-oxo-2,3-dihydro-1H-indole-7-carbonitrile], the melting point fell in the range of 327 to 332 °C. At His6-GSK-3β (class symbols), the IC50 is over 10000 nM. Further, the IC50 against CDK5/GST-p25 (class symbols) was over 10000 nM.

For `N#Cc1ccc2c(c1)NC(=O)C2c1ncnc2c1cnn2C1CCCC1` (stereo not drawn) [Example 63, 3-(1-Cyclopentyl-1H-pyrazolo [3,4-d]pyrimidin-4-yl)-2-oxo-2,3-dihydro-1H-indole-6-carbonitrile], the melting point was in the range of 335 to 338 °C. The IC50 on His6-GSK-3β (class symbols) is 300 to 3000 nM. At CDK5/GST-p25 (class symbols), this molecule registered an IC50 of over 10000 nM.

`CCCn1ncc2c(C3C(=O)Nc4ccc(C#N)cc43)ncnc21` (stereo not drawn) [Example 93, 3-(1-propyl-1H-pyrazolo[3,4-d]pyrimidin-4-yl)-2-oxo-2,3-dihydro-1H-indole-5-carbonitrile] registered a melting point of over 300 °C. For the same molecule, the IC50 on His6-GSK-3β (class symbols) was over 10000 nM. This molecule yielded an IC50 at CDK5/GST-p25 (class symbols) of over 10000 nM.

`[N-]=[N+]=NCCCn1cc2c(C3C(=O)Nc4ccc(Br)cc43)ncnc2n1` (stereo not drawn) [Example 89, 3-[2-(3-azido-propyl)-2H-pyrazolo[3,4-d]pyrimidin-4-yl]-5-bromo-1,3-dihydro-indol-2-one] gave a melting point of 252 to 256 °C. Besides, the IC50 on His6-GSK-3β (class symbols) is under 300 nM. Besides, the IC50 against CDK5/GST-p25 (class symbols) was under 300 nM.

Take `COCCn1cc2c(C3C(=O)Nc4ccc(Br)cc43)nc(NC[C@@H](C)O)nc2n1` (stereo partly drawn) [Example 231, 5-Bromo-3-[6-((R)-2-hydroxy-propylamino)-2-(2-methoxy-ethyl)-2H-pyrazolo[3,4-d]pyrimidin-4-yl]-1,3-dihydro-indol-2-one]: the melting point is over 300 °C. In addition, the IC50 at His6-GSK-3β (class symbols) was under 300 nM. At CDK5/GST-p25 (class symbols), the IC50 is under 300 nM.

Turning to `CCOCCn1cc2c(C3C(=O)Nc4ccc(Cl)cc43)nc(Cl)nc2n1` (stereo not drawn) [Example 211, 5-Chloro-3-[6-chloro-2-(2-ethoxy-ethyl)-2H-pyrazolo[3,4-d]pyrimidin-4-yl]-1,3-dihydro-indol-2-one], the melting point was over 300 °C. For the same molecule, the IC50 at His6-GSK-3β (class symbols) is over 10000 nM. Further, the IC50 on CDK5/GST-p25 (class symbols) is over 10000 nM.

As for `O=C1Nc2ccccc2C1c1nc(Cl)nc2nn(C3CCCC3)cc12` (stereo not drawn) [Example 152, 3-(6-Chloro-2-cyclopentyl-2H-pyrazolo[3,4-d]pyrimidin-4-yl)-1,3-dihydro-indol-2-one], the melting point is 270 to 273 °C. Moreover, the IC50 on His6-GSK-3β (class symbols) is over 10000 nM. This molecule also returned an IC50 on CDK5/GST-p25 (class symbols) of over 10000 nM.

`CC(C)Cn1cc2c(C3C(=O)Nc4ccc(Br)cc43)nc(NCCCN(C)C)nc2n1` (stereo not drawn) [Example 269, 5-Bromo-3-[6-(3-dimethylamino-propylamino)-2-isobutyl-2H-pyrazolo [3,4-d]pyrimidin-4-yl]-1,3-dihydro-indol-2-one] registered a melting point of 250.5 to 254 °C. Moreover, the IC50 on His6-GSK-3β (class symbols) is under 300 nM. Moreover, the IC50 against CDK5/GST-p25 (class symbols) was under 300 nM.

Regarding `O=C1Nc2ccc(Cl)cc2C1c1nc(NCCc2cccnc2)nc2nn(C3CCCC3)cc12` (stereo not drawn) [Example 279, 5-Chloro-3-[2-cyclopentyl-6-(2-pyridin-3-yl-ethylamino)-2H-pyrazolo[3,4-d]pyrimidin-4-yl]-1,3-dihydro-indol-2-one], the melting point was in the range of 277 to 281 °C. Further, the IC50 on His6-GSK-3β (class symbols) was under 300 nM. The molecule further registered an IC50 at CDK5/GST-p25 (class symbols) of 300 to 3000 nM.

Turning to `C[C@@H](O)CNc1nc(C2C(=O)Nc3ccc(Br)cc32)c2cn(C3CCCC3)nc2n1` (stereo partly drawn) [Example 373], the melting point is over 300 °C. Also, the IC50 at His6-GSK-3β (class symbols) was under 300 nM. The same molecule returned an inhibition at 10 µM on CDK5/GST-p25 of 67%.

Take `O=C1Nc2ccccc2C1c1ncnc2c1cnn2C1CCCC1` (stereo not drawn) [Example 62, 3-(1Cyclopentyl-1H-pyrazolo[3,4-d]pyrimidin-4-yl)-1,3-dihydro-indol-2-one]: the melting point lay in the range of 228 to 231 °C. Further, the IC50 at His6-GSK-3β (numeric bounds) is over 3000 nM. For the same molecule, on CDK5/GST-p25 (class symbols), the IC50 was over 10000 nM.

In the case of `CCCCCn1cc2c(C3C(=O)Nc4ccc(C#N)cc43)nc(Cl)nc2n1` (stereo not drawn) [Example 291, 3-(6-Chloro-2-pentyl-2H-pyrazolo [3,4-d]pyrimidin-4-yl)-2-oxo-2,3-dihydro-1H-indole-5-carbonitrile], the melting point is 254 °C (dec.). Further, the IC50 at His6-GSK-3β (class symbols) was in the range of 300 to 3000 nM. The same molecule had an IC50 at CDK5/GST-p25 (numeric bounds) of over 3000 nM.

`CC(=O)NCCNc1nc(C2C(=O)Nc3ccc(C#N)cc32)c2cn(C3CCCC3)nc2n1` (stereo not drawn) [Example 151, 3-(6-(2-acetylamino-ethylamino)-2-cyclopentyl-2H-pyrazolo [3,4-d]pyrimidin-4-yl)-2-oxo-2,3-dihydro-1H-indole-5-carbonitrile] yielded a melting point of over 300 °C. The IC50 on His6-GSK-3β (class symbols) is under 300 nM. On CDK5/GST-p25 (class symbols), this molecule had a 50% inhibitory concentration (IC50) of under 300 nM.

Take `O=C1Nc2ccccc2C1c1ncnc2nn(C3CCCC3)cc12` (stereo not drawn) [Example 37, 3-(2-Cyclopentyl-2H-pyrazolo[3,4-d]pyrimidin-4-yl)-1,3-dihydro-indo-2-one]: the melting point lay in the range of 289 to 292 °C. In addition, the IC50 at His6-GSK-3β (class symbols) was 300 to 3000 nM. Moreover, on CDK5/GST-p25 (class symbols), the IC50 lay in the range of 300 to 3000 nM.

Consider `COCCNc1nc(C2C(=O)Nc3ccc(Cl)cc32)c2cn(CC(C)C)nc2n1` (stereo not drawn) [Example 272, 5-Chloro-3-[2-isobutyl-6-(2-methoxy-ethylamino)-2H-pyrazolo[3,4-d]pyrimidin-4-yl]-1,3-dihydro-indol-2-one], for which the melting point fell in the range of 286 to 289 °C. The IC50 on His6-GSK-3β (class symbols) was under 300 nM. For the same molecule, the IC50 at CDK5/GST-p25 (class symbols) was under 300 nM.

`CC(C)CNc1nc(C2C(=O)Nc3ccc(C#N)cc32)c2cn(C3CCCC3)nc2n1` (stereo not drawn) [Example 165, 3-(2-cyclopentyl-6-isobutylamino-2H-pyrazolo [3,4-d]pyrimidin-4-yl)-2-oxo-2,3-dihydro-1H-indole-5-carbonitrile] came in with a melting point of 297 to 298.5 °C. Further, the IC50 at His6-GSK-3β (class symbols) was under 300 nM. This molecule also came in with an IC50 at CDK5/GST-p25 (class symbols) of under 300 nM.

Take `CNc1nc(C2C(=O)Nc3ccccc32)c2cn(C3CCCC3)nc2n1` (stereo not drawn) [Example 154, 3-(2-cyclopentyl-6-methylamino-2H-pyrazolo [3,4-d]pyrimidin-4-yl)-1,3-dihydro-indol-2-one]: the melting point is over 300 °C. Further, the IC50 at His6-GSK-3β (class symbols) was in the range of 300 to 3000 nM. On CDK5/GST-p25, the inhibition at 10 µM was found to be 68%.

For the molecule `Cl.NCCCNc1nc(C2C(=O)Nc3ccc(C(F)(F)F)cc32)c2cn(C3CCCC3)nc2n1` (stereo not drawn) [Example 254, 3-[6-(3-Amino-propylamino)-2-cyclopentyl-2H-pyrazolo[3,4-d]pyrimidin-4-yl]-5-trifluoromethyl-1,3-dihydro-indol-2-one hydrochloride salt], the melting point fell in the range of 304 to 306 °C. In addition, the IC50 on His6-GSK-3β (class symbols) was under 300 nM. At CDK5/GST-p25 (class symbols), this molecule had an IC50 of 300 to 3000 nM.

In the case of `O=C1Nc2ccc(Cl)cc2C1c1nc(NCCCN2CCOCC2)nc2nn(C3CCCC3)cc12` (stereo not drawn) [Example 278, 5-Chloro-3-[2-cyclopentyl-6-(3-morpholin-4-yl-propylamino)-2H-pyrazolo[3,4-d]pyrimidin-4-yl]-1,3-dihydro-indole-2-one], the melting point is 250 to 254.5 °C. Also, the IC50 on His6-GSK-3β (class symbols) is under 300 nM. Moreover, the IC50 on CDK5/GST-p25 (class symbols) lay in the range of 300 to 3000 nM.

As for `CCCn1cc2c(C3C(=O)Nc4ccc(Br)cc43)ncnc2n1` (stereo not drawn) [Example 97, 5-Bromo-3-(2-propyl-2H-pyrazolo[3,4-d]pyrimidin-4-yl)-1,3-dihydro-indol-2-one], the melting point is over 300 °C. Besides, at His6-GSK-3β (class symbols), the IC50 is under 300 nM. Besides, the IC50 against CDK5/GST-p25 (class symbols) was under 300 nM.
